For data set [1], the system named is herpes simplex type 1 virus. Put plainly: animal or person. It is filed as in vivo, mice (Swiss albino). As to conditions: intraperitoneally, -24, 0, +24 hr, mice, day 21, disodium salt; for ED50: Human alphaherpesvirus 1, ip, 504 h, read-out: PD50 (Protective Dose50).
The test system of data set [2] is herpes simplex type 2 virus. The data set is described as follows: animal or person. It is filed as in vivo, mice (Swiss albino). As to conditions: Human alphaherpesvirus 2, ip, 504 h, intraperitoneally, -24, 0, +24 hr, mice, day 21, read-out: PD50 (Protective Dose50).
The subject of a further data set is pseudorabies virus. The data set is described as follows: animal or person. To be noted: Suid alphaherpesvirus 1, in Mus musculus, ip, 504 h, read-out: PD50 (Protective Dose50). It is filed as in vivo, mice (Swiss albino).
The next data set has as its system leukemia L1210 ascites. The data set is described as follows: Leukemia L1210 ascites in mice. It is filed as in vivo. As to conditions: 100 mg/kg intraperitoneally, BDF1 mice.
The next data set deals with Ehrlich carcinoma. As to conditions: for C/T Index: Ehrlich carcinoma; for No. survivors/No. tested: mouse, in vivo, ip.
For the next data set, the system named is KA-31. To be noted: for activity against KA-31 solid tumor (in words): 14 ip treatments.
The subject of another data set is Marek's disease. To be noted: poultry; U.S. Pat. No. 3,836,650; cited from earlier work.
The next data set has as its system herpes simlpex infection. As to conditions: oral and topical; Shipkowitz et al. 1973; cited from earlier work.

The values that follow come from patent publication US4056673A, “Phosphonoacetic acid derivatives of nucleosides” (Hoffmann-La Roche Inc., priority 1976, dated 1977).

Like-named read-outs stand apart in the source and are kept apart here.

As for `Nc1ncnc2c1ncn2[C@H]1C[C@H](O)[C@@H](COP(=O)(O)CC(=O)O)O1` [2'-Deoxyadenosine-5'-monocarboxymethylphosphonate, monoacetonate], the ED50 in [1] was found to be 444 mg/kg.
Still for that read-out and setting: the result for `O=C(O)CP(=O)(O)OC[C@H]1O[C@@H](n2cc(I)c(=O)[nH]c2=O)C[C@@H]1O` [5-Iodo-2'-deoxyuridine-5'-mono-carboxymethylphosphonate] reads 110 mg/kg.
Regarding `Nc1ncnc2c1ncn2[C@@H]1O[C@H](COP(=O)(O)CC(=O)O)[C@@H](O)[C@H]1O` [Adenosine-5'-mono-carboxymethylphosphonate], the ED50 worked out at 180 mg/kg in data set [1], 575 mg/kg in data set [2] and 386 mg/kg in the data set on pseudorabies virus.
As for `O=C(O)CP(=O)(O)OC[C@H]1O[C@@H](n2cc(F)c(=O)[nH]c2=O)C[C@@H]1O` [Compound A, 5-Fluoro-2-deoxyuridine-5'-mono-carboxymethylphosphonate], the “activity against leukemia L1210 ascites (in words)” value in the data set with leukemia L1210 ascites was “inactive”. The results for the “activity against sarcoma 180 (in words)” value with sarcoma 180 (12.5 mg/kg), in the data set on sarcoma 180 (25 mg/kg) and in the data set with sarcoma 180 (50 mg/kg) were “inactive”, “active” and “active”, respectively. Further, the “C/T Index” value in the data set on sarcoma 180 (sarcoma 180, 12.5 mg/kg ip × 8) is on record as 1.7; with sarcoma 180 (sarcoma 180, 25 mg/kg ip × 8), 2.2; with sarcoma 180 (sarcoma 180, 50 mg/kg ip × 8), 5.9; in the data set with Ehrlich carcinoma (6.25 mg/kg ip × 8) it was 1.5; in the data set on Ehrlich carcinoma (12.5 mg/kg ip × 8) it was 2.4; in the data set with Ehrlich carcinoma (25 mg/kg ip × 8), 3.4. Moreover, the “C/T Index” value amounted to 12.1 in the data set with Ehrlich carcinoma (50 mg/kg ip × 8); 1.8 in the data set on KA-31 (KA-31, 6.25 mg/kg ip × 14); 3.8 with KA-31 (KA-31, 12.5 mg/kg ip × 14); 13.8 with KA-31 (KA-31, 25 mg/kg ip × 14). Further, the “activity against Ehrlich carcinoma (in words)” value with Ehrlich carcinoma (6.25 mg/kg) is “inactive”; in the data set with Ehrlich carcinoma (12.5 mg/kg), “active”; in the data set with Ehrlich carcinoma (25 mg/kg), “active”; in the data set on Ehrlich carcinoma (50 mg/kg) it was “active”. In addition, the “No. survivors/No. tested” value is given as 16/16 in the data set with Ehrlich carcinoma (6.25 mg/kg), 24/24 with Ehrlich carcinoma (12.5 mg/kg), 23/24 with Ehrlich carcinoma (25 mg/kg) and 21/24 in the data set with Ehrlich carcinoma (50 mg/kg). The “activity against KA-31 solid tumor (in words)” value with KA-31 (6.25 mg/kg) was “not at 6.25 mg/kg”; in the data set with KA-31 (12.5 mg/kg), “activity was observed”; with KA-31 (25 mg/kg) it was “activity was observed”.
As for `Nc1nc2c(ncn2[C@@H]2O[C@H](COP(=O)(O)CC(=O)O)[C@@H](O)[C@H]2O)c(=O)[nH]1` [Guanosine-5'-mono-carboxymethylphosphonate], in [1], the ED50 stood at 144 mg/kg.
Take `O=C(O)CP(=O)(O)O` [Phosphonoacetic acid]: the “usefulness in combating Marek's disease (in words)” value in the data set on Marek's disease was “useful in combating Marek's disease in poultry”. The “antiviral activity against herpes simplex infection (in words)” value with herpes simlpex infection was “antiviral agent exhibiting oral and topical activity against herpes simlpex infection”.
On to `Cc1cn([C@H]2C[C@H](O)[C@@H](COP(=O)(O)CC(=O)O)O2)c(=O)[nH]c1=O` [Thymidine-5'-mono-carboxymethylphosphonate], for which the ED50 in data set [1] came to 185 mg/kg.
Turning to `O=C(O)CP(=O)(O)OC[C@H]1O[C@@H](n2ccc(=O)[nH]c2=O)[C@H](O)[C@@H]1O` [Uridine-5'-mono-carboxymethylphosphonate], the ED50 in [1] came out at 127 mg/kg.
In the case of “Adenosine-2'-(or 3'),5'-bis-carboxymethylphosphonate”, the “PD50 (Protective Dose50)” value in data set [1] (30240 min) worked out at 197 mg/kg.
